Test results taken from patent US20090011974A1, “Scavenger Receptor B1 (Cla-1) Targeting for the Treatment of Infection, Sepsis and Inflammation” (priority 2002, published 2009).
“Also recorded” adds a separate entry of the source. Where no end group is shown, it is not given here.

What was measured:
THP-1 cells [1] = test: LTA, Gro-EL and HSP60 stimulated IL-8/IL-6 production in THP-1 cells; assay type: cell-based, human; conditions: 1 μg/ml LTA or Gro-EL, 10-200 fold excess of peptide
Experimental: (§1) THP-1 and CLA-1 overexpressing HeLa cells. Human monocyte-macrophages, THP-1 (ATCC [American Type Culture Collection] TIB 71), are grown in 48-well plates in RPMI 1640 medium supplemented with 10% fetal calf serum (FCS), penicillin (100 U/ml), and streptomycin (100 μg/ml). All experiments involving LPS-induced interleukin production utilize the same media except that 1% FCS was used. Hela cells were cultured as previously reported (Vishnyakova, T. G. et al. (2003) “BINDING AND INTERNALIZATION OF LIPOPOLY[…] CLA-1, A HUMAN ORTHOLOGUE OF RODENT […] RECEPTOR B1,” J. Biol. Chem 278:22771-22780).
Assays for cytokines and lactate dehydrogenase (LD).

[2] = tested on: CLA-1 overexpressing HeLa cells; test: Bodipy-LPS uptake in HeLa cells in the presence of competitors; assay type: cell-based, human; conditions: for effect on Bodipy-LPS uptake (surface binding and internalization): 100-fold excess of peptide, HeLa cells
Experimental: HeLa cells cultured on collagen-coated glass micro-slides are incubated with 5 μg/ml of Alexa 568 HDL, 1-0.5 μg/ml of Alexa 568 apoA-I, 1-0.5 μg/ml of Alexa 568 apoA-II or 0.5 μg/ml Bodipy-LPS for 1-2 hour in a CO2 incubator in DMEM containing 20 mg/ml BSA. […] Imaging is performed in PBS containing 0.4 mg/ml of Trypan Blue as the quenching agent. […] For co-localization, Bodipy-LPS and Alexa-568-apoA-I are used at the same concentration of 0.5 μg/ml. A Nikon video-imaging system, consisting of a phase contrast inverted microscope equipped with set of objectives and filters for immunofluorescence and connected to a digital camera and image processor, is used for recording Alexa-568-HDL and Bodipy-LPS uptake. For co-localization experiments, fluorescence is viewed with a Zeiss 510 laser scanning confocal microscope, using a krypton-argon-Omnichrome laser with excitation wavelengths of 488 and 568 nm for Bodipy-LPS and Alexa-568, respectively.
(§2) HeLa cells cultured on glass micro-slides are incubated with 5 μg/ml of Alexa568 HDL, 1-0.5 μg/ml of Alexa 568 apoA-I, 1-0.5 μg/ml of Alexa 568 L-37PA or 0.5 μg/ml Bodipy-LPS for 1-2 h in a CO2 incubator in DMEM containing 1 mg/ml BSA. […] For co-localization, Bodipy-LPS and Alexa 568-HDL or Bodipy-LPS and Alexa 568-L-37PA were used at the same concentrations of 0.5 μg/ml. Fluorescence was viewed with a Zeiss 510 laser scanning confocal microscope, using a krypton-argon-Omnichrome laser with excitation wavelengths of 488 and 568 nm for Bodipy-LPS and Alexa-568 labels, respectively.
Competition Experiments. The cells are incubated in 1 μg/ml Bodipy-LPS in the presence increasing concentrations of studied peptides. After 2-h incubation cells are washed with ice-cold PBS and lysed in 0.1% sodium dodecyl sulfate (SDS). The lysate fluorescence is measured by HTS7000 Bioassay reader (Perkin Elmer) using 488 nm for excitation and 533 nm for emission monitoring.

CLA-1 [3] = target: T1, CLA-1 (Homo sapiens, UniProt Q8WTV0); test: Confocal uptake of Alexa/Bodipy labelled ligands in CLA-1 expressing versus mock transfected HeLa cells; assay type: cell-based; conditions: for uptake in CLA-1 transfected HeLa cells compared with mock-transfected control: labelled ligand, confocal microscopy
T1 construct: using the expression plasmid pTRE2 (Clontech, Pal Alto, Calif.), encoding a CLA-1 protein (pTRE2-CLA-1); expressed in transfected cells; host or cells: HeLa (Tet-off) cells (Clontech), stably co-transfected with pTRE2-CLA-1 and pTK-Hyg and selected with hygromycin
T1 sequence (Q8WTV0 1-509 isoform Q8WTV0-2): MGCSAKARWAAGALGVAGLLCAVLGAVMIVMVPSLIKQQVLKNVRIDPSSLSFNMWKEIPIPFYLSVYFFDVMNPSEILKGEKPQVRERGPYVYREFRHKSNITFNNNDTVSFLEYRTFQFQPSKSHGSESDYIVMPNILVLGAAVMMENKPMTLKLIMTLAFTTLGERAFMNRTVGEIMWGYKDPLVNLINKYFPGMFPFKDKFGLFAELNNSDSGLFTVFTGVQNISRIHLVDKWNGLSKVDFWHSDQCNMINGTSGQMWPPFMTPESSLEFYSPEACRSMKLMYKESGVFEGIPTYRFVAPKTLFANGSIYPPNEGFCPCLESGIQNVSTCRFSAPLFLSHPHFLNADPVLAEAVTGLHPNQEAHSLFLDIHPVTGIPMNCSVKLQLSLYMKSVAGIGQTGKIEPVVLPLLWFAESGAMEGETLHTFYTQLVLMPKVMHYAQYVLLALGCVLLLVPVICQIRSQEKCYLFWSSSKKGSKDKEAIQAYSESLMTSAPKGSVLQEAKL
Experimental: Preparation of BODIPY-LPS and Alexa-568 HDL, Lipid-free ApoA-I, L-37PA, L2D-37PA and 18A. HDL, apoA-I, L-37PA, L2D-37PA and 18A are conjugated with Alexa-568, SE (Molecular Probes, protein labeling kit) following the kit instructions. The Alexa ligands are analyzed by 10-20% Tricine-SDS peptide gel electrophoresis. Gels are scanned using Variable Mode Imager, Typhoon 9200, Molecular Dynamics. Alexa-labeled preparations of HDL, apolipoproteins and the peptides are found in appropriate positions with molecular masses of 28, 5 and 2.5 kDa for apoA-I, L-37PA and 18PA, respectively.
as §2

THP-1 cells [4] = test: LPS-stimulated cytokine production in THP-1 cells (ELISA); assay type: cell-based, human; conditions: 10 ng/ml LPS, 24 h
Experimental: as §1
Assays for cytokines and lactate dehydrogenase (LD). […]

[5] = Limulus amebocyte lysate (LAL) assay for LPS incubated with peptides; conditions: 10 ng/ml LPS, 10 μg/ml peptide, 37° C., 24 h; for effect on LAL activity of LPS in the absence of bivalent cations: PBS; for effect on LAL activity of LPS in media containing bivalent cations: RPMI-1640 1% FCS or DPBS
Excerpt: Limulus Amebocyte Lysate (LAL) Assay for LPS.
Limulus amebocyte lysate (LAL) assay for LPS.

CLA-1 [6] = target: T1, CLA-1; test: Competition for Alexa 488-SAA uptake in CLA-1 overexpressing and mock transfected HeLa cells (FACS); assay type: binding; conditions: mock transfected and CLA-1 overexpressing HeLa cells
Experimental: Competition experiments. Cells are cultured for 24 hr in serum free DMEM before experiments. […] For KKB-1 anti-CLA-1 blocking experiments, cells are pre-incubated with KKB-1 rabbit anti-serum (non-immune rabbit serum as a negative control) at a dilution of 1:10 followed by ligand addition to a final concentration of 5 μg/ml and a 1-hour incubation. Cell fluorescence was analyzed by FACS analyses.

| Substance | effect on LTA and Gro-EL stimulated IL-8 and IL-6 production (THP-1 cells [1]) | effect on Bodipy-LPS uptake (surface binding and internalization) [2] | SR-BI/CLA-1 ligand property (CLA-1 [3]) | uptake in CLA-1 transfected HeLa cells compared with mock-transfected control (CLA-1 [3]) | effect on LPS-stimulated cytokine (IL-8, IL-6, TNF-α) production (THP-1 cells [4]) | effect on LAL activity of LPS in the absence of bivalent cations [5] | effect on LAL activity of LPS in media containing bivalent cations [5] | competition with Alexa 488-SAA for CLA-1 (CLA-1 [6]) | effect on LAL activity of LPS in the absence of bivalent cations ([5]; listed as L2D-37P A) | effect on LAL activity of LPS in media containing bivalent cations ([5]; listed as L2D-37P A) | effect on surface bound Bodipy-LPS ([2]; 100× excess, CLA-1 overexpressing cells) | effect on Bodipy-LPS uptake ([2]; 200× excess of unlabeled lipid poor apoA-I, CLA-1 overexpressing HeLa cells) | competition with Alexa 488-SAA for CLA-1 (CLA-1 [6]; listed as ApoA-I) |
| --- | --- | --- | --- | --- | --- | --- | --- | --- | --- | --- | --- | --- | --- |
| DWLKAFYDKVAEKLKEAF [Peptide 18A] | low blocking efficiency | did not affect LPS-uptake | less potent SR-BI/CLA-1 ligand | not increased | did not affect LPS-uptake and LPS-stimulated cytokine production; also recorded: Neither L2D-37PA nor 18A, a single helix containing peptide, are effective inhibitors; also recorded: without effect | similarly neutralized LPS activity | had no effect on the LAL activity of LPS in culture media |  |  |  |  |  |  |
| DWLKAFYDKVAEKLKEAF-P-DWLKAFYDKVAEKLKEAF [L1D-37PA] (DWLKAFYDKVAEKLKEAFPDWLKAFYDKVAEKLKEAF; not fully specified (residue 1)) [Peptide L1D-37PA] | not effective blockers; also recorded: no effect was observed |  |  |  | not effective blockers |  |  | No competition is demonstrated |  |  |  |  |  |
| DWLKAFYDKVAEKLKEAF-P-DWLKAFYDKVAEKLKEAF [L2D-37PA] (DWLKAFYDKVAEKLKEAFPDWLKAFYDKVAEKLKEAF; also: two D-amino acids per helix, places not given here) [Peptide L2D-37PA] | not effective blockers; also recorded: block neither LPS uptake nor LPS/LTA/Gro-EL induced interleukin (IL-6 and IL-8) secretion; also recorded: no effect was observed | did not affect LPS-uptake; also recorded: does not decrease LPS uptake; also recorded: block neither LPS uptake | do not bind to SR-BI/CLA-1 | not increased | did not affect LPS-uptake and LPS-stimulated cytokine production; also recorded: Neither L2D-37PA nor 18A, a single helix containing peptide, are effective inhibitors; also recorded: not effective blockers; also recorded: without effect; also recorded: block neither LPS uptake nor LPS/LTA/Gro-EL induced interleukin (IL-6 and IL-8) secretion | also decreases LPS activity in the absence of bivalent cations | No substantial LPS neutralization; also recorded: had no effect in the presence of bivalent cations | No competition is demonstrated | similarly neutralized LPS activity | had no effect on the LAL activity of LPS in culture media |  |  |  |
| DWLKAFYDKVAEKLKEAF-P-DWLKAFYDKVAEKLKEAF [L3D-37PA] (DWLKAFYDKVAEKLKEAFPDWLKAFYDKVAEKLKEAF; also: triple D-amino acid substitutions, places not given here) [Peptide L3D-37PA] | not effective blockers; also recorded: no effect was observed |  |  |  | not effective blockers |  |  | No competition is demonstrated |  |  |  |  |  |
| apoA-I: lipid poor apolipoprotein A-I purified from human plasma |  |  |  | Increased surface binding and internalization |  |  |  | compete with Alexa 488-SAA for CLA-1 |  |  | eliminated surface bound Bodipy-LPS | dramatically reduces Bodipy-LPS uptake | competed for CLA-1 binding with Alexa 488-SAA |
